Experimental data as given in patent US8563717B2, “Adenine derivatives” (GlaxoSmithKline LLC, priority 2008, dated 2013).
Counter-ions that a name gives are not always drawn.

Tested on: Interferon-α
Assay: Induction of Interferon-α using cryopreserved human PBMCs
Format: cell-based
Details: PBMC, 24 h incubation, normalised to 1 uM resiquimod, read-out: mean pEC50 for induction of IFN-α (converted)
Procedure: Assay for the Induction of Interferon-α Using Cryopreserved Human Peripheral Blood Mononuclear Cells (PBMCs)
Compounds were dissolved in DMSO. Serial 2-fold dilutions with DMSO were prepared and 0.25 μl dispensed into 384-well clear Greiner polypropylene plates.
Blood samples of up to 200 ml were obtained from healthy human donors. Whole blood in 25 ml volumes was overlaid onto 15 ml Ficoll gradients in Leucosep tubes, and centrifuged at 1000 g for 20 min. Cells in the band at the plasma/histopaque interface were carefully removed and washed twice with PBS (centrifuged at 400 g for 5 min to harvest). The final pellet was resuspended in freezing medium (90% Heat-inactivated serum, 10% DMSO) to a cell concentration of 4×10^7 cells/ml. The resuspended cells were then cryopreserved (frozen) using a rate controlled freezer, and stored at −140° C. for up to 4 months.
Immediately prior to assay, vials of cryopreserved (frozen) PBMCs were thawed rapidly in a water bath at 37° C. A 1:10 dilution of the cells in trypan blue was prepared and counted. The PBMCs were then diluted in growth media [RPMI 1640 containing 10% fetal calf serum (invitrogen), Penicillin+[…] (Gibco cat. #25030-024, 1:50), L-Glutamine 2 mM, and 1000 units/ml recombinant human IFN-gamma (Preprotech catalogue #300-02)] to a density of 1×10^6 cells/ml, and 50 ul/well dispensed to 384-well clear Greiner polypropylene plates containing 0.25 μl DMSO or test compound in 0.25 μl DMSO. […] Plates were incubated for 24 h at 37° C. in 5% CO2.
A multi-isoform immunoassay was used to quantify IFN-α in PBMC supernatants. Rabbit polyclonal antibody against human IFN-α (catalogue number 31101, Stratech Scientific) was diluted 1:10000 in assay buffer (RPMI 1640 containing 10% fetal calf serum, Invitrogen) and 20 μl was added to each well of an MSD (Meso-Scale Discovery) single small-spot 384-well GAR (goat anti-rabbit antibody coated) plate. The plate was incubated for 1 hour at room temperature with vigorous shaking. Following three washes with PBS, 20 μl of cell supernatant were added to each well of the plate. The plate was then incubated for 1 hour at room temperature with vigorous shaking. A pair of monoclonal antibodies to IFN-α (catalogue numbers 21100 and 21112, Stratech Scientific) were labelled with sulfo-TAG (MSD), diluted 1:1000 in assay buffer and 20 μl added to each well of the plate. The plate was further incubated for 1 hour at room temperature with vigorous shaking. Following three washes with PBS, 30 μl of x2 T buffer (MSD) was added to each well and the plate was read on an MSD Sector 6000 plate reader.
Data were normalised to internal plate controls of 1 uM resiquimod (n=16) and DMSO (n=16). pEC50 values were derived by 4-parameter curve fit with IRLS in ActivityBase, from 11-point, two-fold serial dilution of test compounds.

SMILES | EC50 [nM]
CCCCOc1nc(N)c2[nH]c(=O)n(CCCC3CCCN(C4CCCC4)C3)c2n1 (centres unmarked) [Example 50, 6-Amino-2-(butyloxy)-9-[3-(1-cyclopentyl-3-piperidinyl)propyl]-7,9-dihydro-8H-purin-8-one] | < 1580
CCCCOc1nc(N)c2[nH]c(=O)n(CCCC3CCCN(CC4CCCC4)C3)c2n1 (centres unmarked) [Example 51, 6-Amino-2-(butyloxy)-9-{3-[1-(cyclopentylmethyl)-3-piperidinyl]propyl}-7,9-dihydro-8H-purin-8-one hydrochloride] | < 1580
CCCCOc1nc(N)c2[nH]c(=O)n(CCCC3CCCN(CCC4CCCCC4)C3)c2n1 (centres unmarked) [Example 52, 6-Amino-2-(butyloxy)-9-{3-[1-(2-cyclohexylethyl)-3-piperidinyl]propyl}-7,9-dihydro-8H-purin-8-one] | < 1580
CCC[C@H](C)Oc1nc(N)c2[nH]c(=O)n(CCCC3CCCNC3)c2n1 (stereo partly drawn) [Example 53, 6-Amino-2-{[(1S)-1-methylbutyl]oxy}-9-[3-(3-piperidinyl)propyl]-7,9-dihydro-8H-purin-8-one] | < 1580
CCC[C@H](C)Oc1nc(N)c2[nH]c(=O)n(CCCC3CCCN(CC)C3)c2n1 (stereo partly drawn) [Example 54, 6-Amino-9-[3-(1-ethyl-3-piperidinyl)propyl]-2-{[(1S)-1-methylbutyl]oxy}-7,9-dihydro-8H-purin-8-one] | < 1580
CCCCOc1nc(N)c2[nH]c(=O)n(CCCCC3CCCNC3)c2n1 (centres unmarked) [Example 55, 6-amino-2-(butyloxy)-9-[4-(3-piperidinyl)butyl]-7,9-dihydro-8H-purin-8-one] | < 1580
CCCCOc1nc(N)c2[nH]c(=O)n(CCCCC3CCCN(CC)C3)c2n1 (centres unmarked) [Example 56, 6-Amino-2-(butyloxy)-9-[4-(1-ethyl-3-piperidinyl)butyl]-7,9-dihydro-8H-purin-8-one] | < 1580
CCCCOc1nc(N)c2[nH]c(=O)n(CCCCC3CCCN(CCC)C3)c2n1 (centres unmarked) [Example 57, 6-Amino-2-(butyloxy)-9-[4-(1-propyl-3-piperidinyl)butyl]-7,9-dihydro-8H-purin-8-one] | < 1580
CCCCOc1nc(N)c2[nH]c(=O)n(CCCCC3CCCN(C(C)C)C3)c2n1 (centres unmarked) [Example 58, 6-Amino-2-(butyloxy)-9-{4-[1-(1-methylethyl)-3-piperidinyl]butyl}-7,9-dihydro-8H-purin-8-one] | < 1580
CCCCOc1nc(N)c2[nH]c(=O)n(CCCCC3CCCN(CCCC)C3)c2n1 (centres unmarked) [Example 59, 6-Amino-2-(butyloxy)-9-[4-(1-butyl-3-piperidinyl)butyl]-7,9-dihydro-8H-purin-8-one] | < 1580
CCCCOc1nc(N)c2[nH]c(=O)n(CCCCC3CCCN(CC(C)C)C3)c2n1 (centres unmarked) [Example 60, 6-Amino-2-(butyloxy)-9-{4-[1-(2-methylpropyl)-3-piperidinyl]butyl}-7,9-dihydro-8H-purin-8-one hydrochloride] | < 1580
CCCCOc1nc(N)c2[nH]c(=O)n(CCCCC3CCCN(CCC(C)C)C3)c2n1 (centres unmarked) [Example 61, 6-Amino-2-(butyloxy)-9-{4-[1-(3-methylbutyl)-3-piperidinyl]butyl}-7,9-dihydro-8H-purin-8-one] | < 1580
CCCCOc1nc(N)c2[nH]c(=O)n(CCCCC3CCCN(C4CCCC4)C3)c2n1 (centres unmarked) [Example 62, 6-Amino-2-(butyloxy)-9-[4-(1-cyclopentyl-3-piperidinyl)butyl]-7,9-dihydro-8H-purin-8-one] | < 1580
CCCCOc1nc(N)c2[nH]c(=O)n(CCCCC3CCCN(CC4CCCC4)C3)c2n1 (centres unmarked) [Example 63, 6-Amino-2-(butyloxy)-9-{4-[1-(cyclopentylmethyl)-3-piperidinyl]butyl}-7,9-dihydro-8H-burin-8-one hydrochloride] | < 1580
CCCCOc1nc(N)c2[nH]c(=O)n(CCCCC3CCCN(CCC4CCCCC4)C3)c2n1 (centres unmarked) [Example 64, 6-Amino-2-(butyloxy)-9-{4-[1-(2-cyclohexylethyl)-3-piperidinyl]butyl}-7,9-dihydro-8H-burin-8-one] | < 1580
CCC[C@H](C)Oc1nc(N)c2[nH]c(=O)n(CCCCC3CCCNC3)c2n1 (stereo partly drawn) [Example 65, 6-Amino-2-{[(1S)-1-methylbutyl]oxy}-9-[4-(3-piperidinyl)butyl]-7,9-dihydro-8H-purin-8-one] | < 1580

SMILES | EC50 [nM]
CCCCOc1nc(N)c2[nH]c(=O)n(CCCCCC3CCCNC3)c2n1 (centres unmarked) [Example 67, 6-Amino-2-(butyloxy)-9-[5-(3-piperidinyl)pentyl]-7,9-dihydro-8H-purin-8-one] | < 1580
CCCCOc1nc(N)c2[nH]c(=O)n(CCCCCC3CCCN(CC)C3)c2n1 (centres unmarked) [Example 68, 6-Amino-2-(butyloxy)-9-[5-(1-ethyl-3-piperidinyl)pentyl]-7,9-dihydro-8H-purin-8-one] | < 1580
CCCCOc1nc(N)c2[nH]c(=O)n(CC3CCN(CCC)CC3)c2n1 [Example 70, 6-Amino-2-(butyloxy)-9-[(1-propyl-4-piperidinyl)methyl]-7,9-dihydro-8H-purin-8-one] | < 1580
CCCCOc1nc(N)c2[nH]c(=O)n(CC3CCN(C(C)C)CC3)c2n1 [Example 71, 6-Amino-2-(butyloxy)-9-{[1-(1-methylethyl)-4-piperidinyl]methyl}-7,9-dihydro-8H-purin-8-one] | < 1580
CCCCOc1nc(N)c2[nH]c(=O)n(CC3CCN(CCCC)CC3)c2n1 [Example 72, 6-Amino-2-(butyloxy)-9-[(1-butyl-4-piperidinyl)methyl]-7,9-dihydro-8H-purin-8-one] | < 1580
CCCCOc1nc(N)c2[nH]c(=O)n(CC3CCN(CC(C)C)CC3)c2n1 [Example 73, 6-Amino-2-(butyloxy)-9-{[1-(2-methylpropyl)-4-piperidinyl]methyl}-7,9-dihydro-8H-purin-8-one] | < 1580
CCCCOc1nc(N)c2[nH]c(=O)n(CC3CCN(CCC(C)C)CC3)c2n1 [Example 74, 6-Amino-2-(butyloxy)-9-{[1-(3-methylbutyl)-4-piperidinyl]methyl}-7,9-dihydro-8H-purin-8-one] | < 1580
CCCCOc1nc(N)c2[nH]c(=O)n(CC3CCN(C4CCCC4)CC3)c2n1 [Example 75, 6-Amino-2-(butyloxy)-9-[(1-cyclopentyl-4-piperidinyl)methyl]-7,9-dihydro-8H-purin-8-one] | < 1580
CCCCOc1nc(N)c2[nH]c(=O)n(CC3CCN(C4CCCCC4)CC3)c2n1 [Example 76, 6-Amino-2-(butyloxy)-9-[(1-cyclohexyl-4-piperidinyl)methyl]-7,9-dihydro-8H-purin-8-one] | < 1580
CCC[C@H](C)Oc1nc(N)c2[nH]c(=O)n(CC3CCNCC3)c2n1 [Example 77, 6-Amino-2-{[(1S)-1-Methylbutyl]oxy}-9-(4-piperidinylmethyl)-7,9-dihydro-8H-purin-8-one] | < 1580
CCC[C@H](C)Oc1nc(N)c2[nH]c(=O)n(CC3CCN(CC)CC3)c2n1 [Example 78, 6-Amino-9-[(1-ethyl-4-piperidinyl)methyl]-2-{[(1S)-1-methylbutyl]oxy}-7,9-dihydro-8H-purin-8-one] | < 1580
CCC[C@H](C)Oc1nc(N)c2[nH]c(=O)n(CC3CCN(C(C)C)CC3)c2n1 [Example 79, 6-Amino-2-{[(1S)-1-methylbutyl]oxy}-9-{[1-(1-methylethyl)-4-piperidinyl]methyl}-7,9-dihydro-8H-purin-8-one] | < 1580
CCCCOc1nc(N)c2[nH]c(=O)n(CCC3CCN(CCC)CC3)c2n1 [Example 80, 6-Amino-2-(butyloxy)-9-[2-(1-propyl-4-piperidinyl)ethyl]-7,9-dihydro-8H-purin-8-one] | < 1580
CCCCOc1nc(N)c2[nH]c(=O)n(CCC3CCN(CCCC)CC3)c2n1 [Example 82, 6-Amino-2-(butyloxy)-9-[2-(1-butyl-4-piperidinyl)ethyl]-7,9-dihydro-8H-purin-8-one] | < 1580
CCCCOc1nc(N)c2[nH]c(=O)n(CCC3CCN(CC(C)C)CC3)c2n1 [Example 83, 6-Amino-2-(butyloxy)-9-{2-[1-(2-methylpropyl)-4-piperidinyl]ethyl}-7,9-dihydro-8H-purin-8-one] | < 1580
CCCCOc1nc(N)c2[nH]c(=O)n(CCC3CCN(C(CC)CC)CC3)c2n1 [Example 84, 6-Amino-2-(butyloxy)-9-{2-[1-(1-ethylpropyl)-4-piperidinyl]ethyl}-7,9-dihydro-8H-purin-8-one] | < 1580
